Measurements taken from ChEMBL document CHEMBL5608186, “Design, synthesis and structure-activity relationships of novel non-ketolides: 9-Oxime clarithromycin featured with seven-to thirteen-atom-length diamine linkers at 3-OH” (Eur J Med Chem, 2024).
Values after ≈ are worked out from the molar mass of the structure shown.

Assays:
Staphylococcus aureus [1] = experiment: Bactericidal activity against methicillin-resistant Staphylococcus aureus PU 32 harboring i-ermA gene incubated for 16 to 20 hrs by CLSI based broth microdilution method; type: functional; settings: time 16-20 hrs
Escherichia coli [2] = experiment: Antibacterial activity against Escherichia coli SQ110 DTC harboring 23S rRNA A2058G mutant incubated for 16 to 20 hrs by CLSI based broth microdilution method; type: functional; settings: time 16-20 hrs
[3] = Inhibition of Escherichia coli DNA supercoiling assessed as reduction in protein synthesis by firefly luciferase gene assay; type: functional
Staphylococcus aureus [4] = experiment: Bactericidal activity against methicillin-resistant Staphylococcus aureus PU 20 harboring c-ermA gene incubated for 16 to 20 hrs by CLSI based broth microdilution method; type: functional; settings: time 16-20 hrs
[5] = Metabolic stability in human liver microsomes assessed as unchanged drug at 1 uM incubated upto 60 mins in presence of NADPH by LC-MS/MS analysis; type: ADME, Microsome; settings: read-out: Stability
Escherichia coli [6] = experiment: Selectivity ratio of MIC for Escherichia coli SQ110 DTC harboring Gyr A Ser83Leu mutant to MIC for wild-type Escherichia coli SQ110 DTC; type: functional
Streptococcus pneumoniae [7] = experiment: Antibacterial activity against Streptococcus pneumoniae PU 09 harboring mef gene incubated for 16 to 20 hrs by CLSI based broth microdilution method; type: functional; settings: time 16-20 hrs
Streptococcus pneumoniae [8] = experiment: Selectivity ratio of MBC for Streptococcus pneumoniae ATCC 49619 to MIC for Streptococcus pneumoniae ATCC 49619; type: functional
Streptococcus pyogenes [9] = experiment: Bactericidal activity against Streptococcus pyogenes 01-968 harboring i-ermB gene incubated for 16 to 20 hrs by CLSI based broth microdilution method; type: functional; settings: time 16-20 hrs
[10] = Metabolic stability in human liver microsomes assessed as intrinsic clearance in liver at 1 uM incubated upto 60 mins in presence of NADPH by LC-MS/MS analysis; type: ADME, Microsome; settings: read-out: CLH
Escherichia coli [11] = experiment: Selectivity ratio of MIC for Escherichia coli SQ110 DTC harboring 23S rRNA A2058G/Gyr A Ser83Leu mutant to MIC for wild-type Escherichia coli SQ110 DTC; type: functional
Streptococcus pneumoniae [12] = experiment: Antibacterial activity against Streptococcus pneumoniae 07P390 harboring c-erm gene incubated for 16 to 20 hrs by CLSI based broth microdilution method; type: functional; settings: time 16-20 hrs
Streptococcus pneumoniae [13] = experiment: Antibacterial activity against Streptococcus pneumoniae ATCC 49619 incubated for 16 to 20 hrs by CLSI based broth microdilution method; type: functional; settings: time 16-20 hrs
Staphylococcus aureus [14] = experiment: Antibacterial activity against methicillin-resistant Staphylococcus aureus PU 32 harboring i-ermA gene incubated for 16 to 20 hrs by CLSI based broth microdilution method; type: functional; settings: time 16-20 hrs
Haemophilus influenzae [15] = experiment: Selectivity ratio of MBC for Haemophilus influenzae ATCC 49247 to MIC for Haemophilus influenzae ATCC 49247; type: functional
[16] = Metabolic stability in rat liver microsomes assessed as unchanged drug at 1 uM incubated upto 60 mins in presence of NADPH by LC-MS/MS analysis; type: ADME, Microsome; settings: read-out: Stability
Haemophilus influenzae [17] = experiment: Antibacterial activity against Haemophilus influenzae ATCC 49247 incubated for 16 to 20 hrs by CLSI based broth microdilution method; type: functional; settings: time 16-20 hrs
[18] = Metabolic stability in human liver microsomes assessed as half life at 1 uM incubated upto 60 mins in presence of NADPH by LC-MS/MS analysis; type: ADME, Microsome
Staphylococcus aureus [19] = experiment: Antibacterial activity against methicillin-resistant Staphylococcus aureus PU 20 harboring c-ermA gene incubated for 16 to 20 hrs by CLSI based broth microdilution method; type: functional; settings: time 16-20 hrs
Streptococcus pyogenes [20] = experiment: Selectivity ratio of MBC for Streptococcus pyogenes 01-968 harboring i-ermB gene to MIC for Streptococcus pyogenes 01-968 harboring i-ermB gene; type: functional
Escherichia coli [21] = experiment: Selectivity ratio of MIC for Escherichia coli SQ110 DTC harboring 23S rRNA A2058G mutant to MIC for wild-type Escherichia coli SQ110 DTC; type: functional
DNA gyrase = DNA gyrase (Escherichia coli, UniProt P0AES4+P0AES6); experiment: Inhibition of Escherichia coli DNA gyrase using pBR322 DNA as substrate incubated for 30 mins by electrophoresis; type: protein-complex assay
Escherichia coli [22] = experiment: Antibacterial activity against Escherichia coli SQ110 DTC harboring Gyr A Ser83Leu mutant incubated for 16 to 20 hrs by CLSI based broth microdilution method; type: functional; settings: time 16-20 hrs
Streptococcus pneumoniae [23] = experiment: Bactericidal activity against Streptococcus pneumoniae PU 09 harboring mef gene incubated for 16 to 20 hrs by CLSI based broth microdilution method; type: functional; settings: time 16-20 hrs
Streptococcus pneumoniae [24] = experiment: Bactericidal activity against Streptococcus pneumoniae ATCC 49619 incubated for 16 to 20 hrs by CLSI based broth microdilution method; type: functional; settings: time 16-20 hrs
HepG2 = experiment: Cytotoxicity against human HepG2 cells assessed as cell viability at 5 to 50 uM incubated for 48 hrs by CCK8 assay; type: toxicity, cell-based; settings: hepg2, 48 h, dose 5-50 µM
Streptococcus pneumoniae [25] = experiment: Selectivity ratio of MBC for Streptococcus pneumoniae 07P390 harboring c-erm gene to MIC for Streptococcus pneumoniae 07P390 harboring c-erm gene; type: functional
[26] = Metabolic stability in Escherichia coli SQ110 DTC assessed as unchanged drug at 5 to 10 times MIC measured after 60 mins by LC-MS/MS analysis; type: ADME; settings: Escherichia coli SQ110 DTC cells, read-out: Stability
Escherichia coli [27] = experiment: Antibacterial activity against wild-type Escherichia coli SQ110 DTC incubated for 16 to 20 hrs by CLSI based broth microdilution method; type: functional; settings: time 16-20 hrs
Staphylococcus aureus [28] = experiment: Selectivity ratio of MBC for methicillin-resistant Staphylococcus aureus PU 32 harboring i-ermA gene to MIC for methicillin-resistant Staphylococcus aureus PU 32 harboring i-ermA gene; type: functional
HEK-293T = experiment: Cytotoxicity against HEK293T cells assessed as cell viability at 5 to 50 uM incubated for 48 hrs by CCK8 assay; type: toxicity, cell-based; settings: human, dose 5-50 µM
Haemophilus influenzae [29] = experiment: Bactericidal activity against Haemophilus influenzae ATCC 49247 incubated for 16 to 20 hrs by CLSI based broth microdilution method; type: functional; settings: time 16-20 hrs
Streptococcus pyogenes [30] = experiment: Antibacterial activity against Streptococcus pyogenes 01-968 harboring i-ermB gene incubated for 16 to 20 hrs by CLSI based broth microdilution method; type: functional; settings: time 16-20 hrs
Escherichia coli [31] = experiment: Antibacterial activity against Escherichia coli SQ110 DTC harboring 23S rRNA A2058G/Gyr A Ser83Leu mutant incubated for 16 to 20 hrs by CLSI based broth microdilution method; type: functional; settings: time 16-20 hrs
Streptococcus pneumoniae [32] = experiment: Bactericidal activity against Streptococcus pneumoniae 07P390 harboring c-erm gene incubated for 16 to 20 hrs by CLSI based broth microdilution method; type: functional; settings: time 16-20 hrs

`CC[C@H]1OC(=O)[C@H](C)[C@@H](OC(=O)CCNCCCCNc2cc3c(cc2F)c(=O)c(C(=O)O)cn3C2CC2)[C@H](C)[C@@H](O[C@@H]2O[C@H](C)C[C@H](N(C)C)[C@H]2O)[C@](C)(OC)C[C@@H](C)/C(=N\OCC#Cc2cncc(C(=O)NC)c2)[C@H](C)[C@H]2OC(=O)O[C@@]21C` showed an MBC (Staphylococcus aureus [1]) of 32 µg/mL (≈ 26.9 µM), an MIC (Escherichia coli [2]) of 4 µg/mL (≈ 3.36 µM) and an IC50 [3] of 0.74 µM. For the same molecule, the MBC (Staphylococcus aureus [4]) was greater than 256 µg/mL, the remaining at 1 h, 1 µM [5] was 91.3% and the Selectivity ratio (Escherichia coli [6]) was 2. The MIC (Streptococcus pneumoniae [7]) was no more than 0.008 µg/mL, the Selectivity ratio (Streptococcus pneumoniae [8]) was “>=1” and the MBC (Streptococcus pyogenes [9]) was greater than 0.5 µg/mL. For the same molecule, the CLint scaled at 1 µM [10] was 2.7 mL/min/kg, the Selectivity ratio (Escherichia coli [11]) was greater than 32 and the MIC (Streptococcus pneumoniae [12]) was 0.12 µg/mL (≈ 0.101 µM). The MIC (Streptococcus pneumoniae [13]) was no more than 0.008 µg/mL, the MIC (Staphylococcus aureus [14]) was 32 µg/mL (≈ 26.9 µM) and the Selectivity ratio (Haemophilus influenzae [15]) was 2. It also gave a remaining at 1 h, 1 µM [16] of 70.6%, an MIC (Haemophilus influenzae [17]) of 2 µg/mL (≈ 1.68 µM) and a half-life at 1 µM [18] of 7.65 h. It also gave an MIC (Staphylococcus aureus [19]) greater than 256 µg/mL, a Selectivity ratio (Streptococcus pyogenes [20]) greater than 8 and a Selectivity ratio (Escherichia coli [21]) of 1. It also gave an IC50 (DNA gyrase) of 11.9 µM, an MIC (Escherichia coli [22]) of 8 µg/mL (≈ 6.72 µM) and an MBC (Streptococcus pneumoniae [23]) of 0.008 µg/mL (≈ 0.00672 µM). The MBC (Streptococcus pneumoniae [24]) was 0.008 µg/mL (≈ 0.00672 µM), the Activity (HepG2) was “Non-Toxic” and the Selectivity ratio (Streptococcus pneumoniae [25]) was 8. For the same molecule, the remaining at 1 h [26] was 84.3%, the MIC (Escherichia coli [27]) was 4 µg/mL (≈ 3.36 µM) and the Selectivity ratio (Staphylococcus aureus [28]) was 1. For the same molecule, the Activity (HEK-293T) was “Non-Toxic”, the MBC (Haemophilus influenzae [29]) was 4 µg/mL (≈ 3.36 µM) and the MIC (Streptococcus pyogenes [30]) was 0.06 µg/mL (≈ 0.0504 µM). The MIC (Escherichia coli [31]) was greater than 128 µg/mL and the MBC (Streptococcus pneumoniae [32]) was 1 µg/mL (≈ 0.84 µM).

With `CC[C@H]1OC(=O)[C@H](C)[C@@H](O[C@H]2C[C@@](C)(OC)[C@@H](O)[C@H](C)O2)[C@H](C)[C@@H](O[C@@H]2O[C@H](C)C[C@H](N(C)C)[C@H]2O)[C@](C)(O)C[C@@H](C)C(=O)[C@H](C)[C@@H](O)[C@]1(C)O` [ERYTHROMYCIN] the MIC (Escherichia coli [2]) was greater than 128 µg/mL, the IC50 [3] was 1.1 µM and the Selectivity ratio (Escherichia coli [6]) was 1. For the same molecule, the Selectivity ratio (Escherichia coli [11]) was greater than 64, the Selectivity ratio (Escherichia coli [21]) was greater than 64 and the MIC (Escherichia coli [22]) was 2 µg/mL (≈ 2.73 µM). For the same molecule, the MIC (Escherichia coli [27]) was 2 µg/mL (≈ 2.73 µM) and the MIC (Escherichia coli [31]) was greater than 128 µg/mL.

Molecule `CCOc1ccc2ccc(=O)oc2c1` has a remaining at 1 h, 1 µM [5] of 14.1%, a CLint scaled at 1 µM [10] of 58.7 mL/min/kg and a remaining at 1 h, 1 µM [16] of 1%. For the same molecule, the half-life at 1 µM [18] was 0.353 h.
